From patent US20240299352A1, “COMBINATION THERAPIES WITH SETD2 INHIBITORS” (Epizyme, Inc., priority 2021, published 2024)

Experiments:
[1] = test system: diffuse large B-cell lymphoma (DLBCL) cell lines; assay: Co-treatment combination study with Cpd. No. 15, further cell lines (Table F), CellTiter-Glo viability, Loewe Volume; type: cell-based; conditions: for Combination effect with Cpd. No. 15 (Loewe Volume class), Ri1: co-treatment with Cpd. No. 15, cell line Ri1 (Cat. No. 96090512-1VL); for Combination effect with Cpd. No. 15 (Loewe Volume class), TMD8: co-treatment with Cpd. No. 15, cell line TMD8 (Cat. No. M-097); for Combination effect with Cpd. No. 15 (Loewe Volume class), WILL1: co-treatment with Cpd. No. 15, cell line WILL1 (Cat. No. ACC 651)
Protocol: (§1) Mantle cell lymphoma (MCL) and diffuse large B-cell lymphoma (DLBCL) cell line cultures in log-linear growth rate were treated with combinations of Cpd. No. 15 and combination partners according to a co-treatment model. […] No. 15 and the combination partner. […] Each combination was tested in quadruplicate wells. The final concentration of DMSO (vehicle) in the assay was 0.1% v/v. Fifty microliters of cell line suspension were directly dispensed to the assay-ready plates with an automated multichannel dispenser on to 384-well assay-ready plates. Assay plates were incubated for seven days unless otherwise indicated in a humidified atmosphere of 5% CO2 at 37° C. Quantification of the effect of single agents or combinations on cell viability was performed through measurement of cellular adenosine triphosphate (ATP) using a CellTiter-Glo® (Promega, Madison, WI) Luminescent Cell Viability Assay. Luminescence was detected using a SpectraMax M5 microplate reader (Molecular Devices, Sunnyvale, CA). Concentration response plots were generated in GraphPad Prism version 7.0 for Windows, GraphPad Software, (La Jolla, California) and curves fitted to a four-parameter logistic model with variable slope. Percent of inhibition was calculated at each treatment concentration.

[2] = test system: diffuse large B-cell lymphoma (DLBCL) cell lines; assay: Pre-treatment model combination study with Cpd. No. 15 (7 days pre-treatment, then combination; Table G), CellTiter-Glo viability, Loewe Volume; conditions: 7 days pre-treatment with Cpd. No. 15, then combination
KARPAS422 = assay: Co-treatment combination study with Cpd. No. 15, CellTiter-Glo viability, Loewe Volume; type: cell-based; conditions: in combination with Cpd. No. 15, seven days, DLBCL cell line KARPAS422
Protocol: as §1

WSUNHL = assay: as above; type: cell-based; conditions: in combination with Cpd. No. 15, seven days, DLBCL cell line WSUNHL
Protocol: as §1

SUDHL10 = assay: as above; type: cell-based; conditions: in combination with Cpd. No. 15; 5-Day Cotreatment; DLBCL cell line SUDHL10
Protocol: as §1

WILL2 = assay: as above; type: cell-based; conditions: in combination with Cpd. No. 15, seven days, DLBCL cell line WILL2
Protocol: as §1

SUDHL2 = assay: as above; type: cell-based; conditions: in combination with Cpd. No. 15, seven days, DLBCL cell line SUDHL2
Protocol: as §1

Pfeiffer = assay: as above; type: cell-based; conditions: in combination with Cpd. No. 15, seven days, DLBCL cell line Pfeiffer
Protocol: as §1

SUDHL5 = assay: as above; type: cell-based; conditions: in combination with Cpd. No. 15, seven days, DLBCL cell line SUDHL5
Protocol: as §1

TOLEDO = assay: as above; type: cell-based; conditions: in combination with Cpd. No. 15, seven days, DLBCL cell line TOLEDO
Protocol: as §1

DB = assay: as above; type: cell-based; conditions: in combination with Cpd. No. 15, seven days, DLBCL cell line DB
Protocol: as §1

HT = assay: as above; type: cell-based; conditions: in combination with Cpd. No. 15, seven days, DLBCL cell line HT
Protocol: as §1

DOHH2 = assay: as above; type: cell-based; conditions: in combination with Cpd. No. 15, seven days, DLBCL cell line DOHH2
Protocol: as §1

SUDHL8 = assay: as above; type: cell-based; conditions: in combination with Cpd. No. 15, seven days, DLBCL cell line SUDHL8
Protocol: as §1

SUDHL6 = assay: as above; type: cell-based; conditions: in combination with Cpd. No. 15, seven days, DLBCL cell line SUDHL6
Protocol: as §1

Z138 = assay: as above; type: cell-based; conditions: in combination with Cpd. No. 15, seven days, mantle cell lymphoma cell line Z138 (CRL-3001)
Protocol: as §1

JEKO1 = assay: as above; type: cell-based; conditions: in combination with Cpd. No. 15, seven days, mantle cell lymphoma cell line JEKO1 (CRL-3006)
Protocol: as §1

MINO = assay: as above; type: cell-based; conditions: in combination with Cpd. No. 15, seven days, mantle cell lymphoma cell line MINO (CRL-3000)
Protocol: as §1

JVM2 = assay: as above; type: cell-based; conditions: in combination with Cpd. No. 15, seven days, mantle cell lymphoma cell line JVM2 (CRL-3002)
Protocol: as §1

REC1 = assay: as above; type: cell-based; conditions: in combination with Cpd. No. 15, seven days, mantle cell lymphoma cell line REC1 (CRL-3004)
Protocol: as §1

GRANTA519 = assay: as above; type: cell-based; conditions: in combination with Cpd. No. 15, seven days, mantle cell lymphoma cell line GRANTA519 (ACC 342)
Protocol: as §1

MAVER1 = assay: as above; type: cell-based; conditions: in combination with Cpd. No. 15, seven days, mantle cell lymphoma cell line MAVER1 (CRL-3008)
Protocol: as §1

| Molecule | Combination effect with Cpd. No. 15 (Loewe Volume class), Ri1 [1] | Combination effect with Cpd. No. 15 (Loewe Volume class), TMD8 [1] | Combination effect with Cpd. No. 15 (Loewe Volume class), WILL1 [1] | Combination effect (Loewe Volume) KARPAS422 (KARPAS422) | Combination effect (Loewe Volume) WSUNHL (WSUNHL) | Combination effect (Loewe Volume) SUDHL10 (SUDHL10) | Combination effect (Loewe Volume) WILL2 (WILL2) | Combination effect (Loewe Volume) SUDHL2 (SUDHL2) | Combination effect (Loewe Volume) Pfeiffer (Pfeiffer) | Combination effect (Loewe Volume) TOLEDO (TOLEDO) | Combination effect (Loewe Volume) DB (DB) | Combination effect (Loewe Volume) HT (HT) | Combination effect (Loewe Volume) DOHH2 (DOHH2) | Combination effect (Loewe Volume) SUDHL8 (SUDHL8) | also measured |
| --- | --- | --- | --- | --- | --- | --- | --- | --- | --- | --- | --- | --- | --- | --- | --- |
| N.N.O=C([O-])C1(C(=O)[O-])CCC1.[Pt+2] [Carboplatin, carboplatin] | Additivity (between 1 and −1: additivity) | Additivity (between 1 and −1: additivity) | Additivity (between 1 and −1: additivity) | Additivity (between 1 and −1: additivity) | Synergy (VLoewe>1: synergy) | Additivity (between 1 and −1: additivity) | Additivity (between 1 and −1: additivity) | Additivity (between 1 and −1: additivity) | Additivity (between 1 and −1: additivity) | Additivity (between 1 and −1: additivity) | Additivity (between 1 and −1: additivity) | Additivity (between 1 and −1: additivity) | Additivity (between 1 and −1: additivity) | Synergy (VLoewe>1: synergy) | Combination effect with Cpd. No. 15 (Loewe Volume class), Farage ([2]; cell line Farage (Cat. No. CRL-2630)): Additivity (between 1 and −1: additivity); Combination effect with Cpd. No. 15 (Loewe Volume class), HT ([2]; cell line HT (Cat. No. CRL-2631)): Synergy (VLoewe>1: synergy); Combination effect with Cpd. No. 15 (Loewe Volume class), OCILY7 ([2]; cell line OCILY7 (Cat. No. ACC 688)): Additivity (between 1 and −1: additivity); Combination effect with Cpd. No. 15 (Loewe Volume class), WILL2 ([2]; cell line WILL2 (Cat. No. ACC 652)): Synergy (VLoewe>1: synergy); Combination effect (Loewe Volume) SUDHL5 (SUDHL5): Additivity (between 1 and −1: additivity) |
| rituximab | Additivity (between 1 and −1: additivity) | No Effect | No Effect | No Effect | Additivity (between 1 and −1: additivity) | Additivity (between 1 and −1: additivity) | Additivity (between 1 and −1: additivity) | No Effect | No Effect | Additivity (between 1 and −1: additivity) | No Effect | Additivity (between 1 and −1: additivity) | Synergy (VLoewe>1: synergy) | Additivity (between 1 and −1: additivity) | Combination effect (Loewe Volume) SUDHL6 (SUDHL6): Synergy (VLoewe>1: synergy); Combination effect (Loewe Volume) Z138 (Z138): No Effect; Combination effect (Loewe Volume) JEKO1 (JEKO1): Synergy (VLoewe>1: synergy); Combination effect (Loewe Volume) MINO (MINO): No Effect; Combination effect (Loewe Volume) JVM2 (JVM2): Additivity (between 1 and −1: additivity); Combination effect (Loewe Volume) REC1 (REC1): Additivity (between 1 and −1: additivity); Combination effect (Loewe Volume) GRANTA519 (GRANTA519): Additivity (between 1 and −1: additivity); Combination effect (Loewe Volume) MAVER1 (MAVER1): Synergy (VLoewe>1: synergy) |
